Measurements taken from patent US11970452B2, “Modulators of mas-related G-protein receptor X2 and related products and methods” (Escient Pharmaceuticals, Inc., priority 2020, dated 2024).

What follows are compounds tested against T1, human MRGPRX2 (Homo sapiens, UniProt Q96LB1) (assay: MRGPRX2 activity: IP-One HTRF antagonist assay versus 0.3 uM Cortistatin 14). Conditions: CHO cells expressing human MRGPRX2; IP-1 HTRF; versus 0.3 uM Cortistatin 14 agonist; read-out: MRGPR2 Antagonist Activity.
T1 construct: expressed in transfected cells
T1 sequence (Q96LB1 1-330): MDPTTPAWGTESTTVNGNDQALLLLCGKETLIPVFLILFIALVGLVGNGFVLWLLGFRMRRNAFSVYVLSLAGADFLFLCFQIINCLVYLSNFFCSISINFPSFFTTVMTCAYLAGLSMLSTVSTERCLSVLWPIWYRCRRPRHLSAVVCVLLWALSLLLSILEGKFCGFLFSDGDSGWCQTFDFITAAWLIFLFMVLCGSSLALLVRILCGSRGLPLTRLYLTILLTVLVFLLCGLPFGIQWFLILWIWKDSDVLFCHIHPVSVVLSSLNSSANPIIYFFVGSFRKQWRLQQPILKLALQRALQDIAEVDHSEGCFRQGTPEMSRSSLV
Assay type: cell-based
Experimental: CHO cells stably transfected to express human MRGPRX2 were maintained in an incubator at 37° C. with 5% CO2 and grown in F12 (HAM) media with 10% fetal bovine serum (FBS), 1% Glutamax, 1% penicillin/streptomycin, 800 μg/mL Geneticin (G418), and 300 μg/mL Hygromycin B.
Cells were plated in a […] assay plate at 20,000 cells per well in 12 μL of Opti-MEM and kept in an incubator overnight. On the day of the assay, compounds solubilized at 10 mM in DMSO were added as a 10-point curve (30 uM final top concentration with 1:3 serial dilutions) using a Tecan D300E digital dispenser. Agonists were diluted in assay buffer (final concentrations of 5.7 mM Tris-HCl, 43 mM NaCl, 50 mM LiCl, pH=8) and 2 μL of the agonist Cortistatin 14 (CPC Scientific, catalog CORT-002) are added to each well. Final concentrations of agonists were 0.3 μM Cortistatin. Final concentrations of DMSO were kept consistent across the plate. Plates were incubated in the dark for 1 h at 37° C. and then for 1 h at room temperature. IP-1 standards and HTRF detection reagents were added according to the IP-One-Gq Kit purchased from Cisbio (part number 62IPAPEJ) and incubated in the dark for 1 h at room temperature. The plate was read on a Molecular Devices SpectraMax iD5 plate reader. The HTRF ratio was calculated from the raw data and graphed using GraphPad Prism to calculate an IC50 value for each compound.
(§1) The activity ranges are denoted as follows: “+++++” denotes antagonist activity <100 nM; “++++” denotes antagonist activity between 100 and 500 nM; “+++” denotes activity between 501 and 1000 nM; “++” denotes activity between 1001 and 2500 nM; and “+” denotes activity >2500 nM

`O=C(N[C@H]1CC[C@@H](Nc2cc(C(F)F)nc3ccc(Cl)cc23)CC1)c1ccc(F)cc1` [1-3, 4-fluoro-N-[(1s,4s)-4-{[6-chloro-2-(difluoromethyl)quinolin-4-yl]amino}cyclohexyl]benzamide] and `CN(C)c1ccc(C(=O)N[C@H]2CC[C@@H](Nc3cc(C(F)(F)F)nc4ccc(Cl)cc34)CC2)cc1` [4-102] fall in the same range of IC50: 100 to 500 nM for the first, 100 to 500 nM for the second.

`O=C(N[C@H]1CC[C@@H](Nc2cc(C(F)(F)F)nc3ccccc23)CC1)c1ccccc1Cl` [3-12] and `O=C(N[C@H]1CC[C@@H](Nc2cc(C(F)(F)F)nc3ccccc23)CC1)c1coc2ccccc12` [4-272] fall in the same range of IC50: 100 to 500 nM for the first, 100 to 500 nM for the second.

Compared with `O=C(N[C@H]1CC[C@@H](Nc2cc(C(F)(F)F)nc3ccccc23)CC1)c1ccccn1` [3-21], `O=C(N[C@H]1CC[C@@H](Nc2cc(C(F)(F)F)nc3ccccc23)CC1)c1ccc2ncccc2n1` [4-265] is higher in IC50: 501 to 1000 nM for the first, 1000 to 2500 nM for the second. The first is the more potent here.

`CCC(C(=O)N[C@H]1CC[C@@H](Nc2cc(C(F)(F)F)nc3ccccc23)CC1)c1ccccc1` (stereo partly shown) [3-24] and `O=C(N[C@H]1CC[C@@H](Nc2cc(C(F)(F)F)nc3ccccc23)CC1)[C@H]1C[C@@H]1c1ccccc1` [4-291] fall in the same range of IC50: 1000 to 2500 nM for the first, 1000 to 2500 nM for the second.

`COc1ccc(C(=O)N[C@H]2CC[C@@H](Nc3cc(C(F)(F)F)nc4ccccc34)CC2)cc1F` [3-27] and `COc1ccc(C(=O)N[C@H]2CC[C@@H](Nc3cc(C(F)(F)F)nc4ccccc34)CC2)cc1N(C)C` [4-258] fall in the same range of IC50: 501 to 1000 nM for the first, 501 to 1000 nM for the second.

`O=C(N[C@H]1CC[C@@H](Nc2cc(C(F)(F)F)nc3ccccc23)CC1)c1cccs1` [3-36] and `O=C(N[C@H]1CC[C@@H](Nc2cc(C(F)(F)F)nc3ccccc23)CC1)c1ccc(Cl)s1` [4-241] fall in the same range of IC50: 501 to 1000 nM for the first, 501 to 1000 nM for the second.

Compared with `O=C(N[C@H]1CC[C@@H](Nc2cc(C(F)(F)F)nc3ccccc23)CC1)c1cccc(F)c1` [3-42], `O=C(N[C@H]1CC[C@@H](Nc2cc(C(F)(F)F)nc3ccccc23)CC1)c1cc(Cl)cs1` [4-251] is higher in IC50: 100 to 500 nM for the first, 501 to 1000 nM for the second. The first is the more potent here.

First: COc1ccc(C(=O)N[C@H]2CC[C@@H](Nc3cc(C(F)(F)F)nc4ccc(Cl)cc34)CC2)c(C)n1 [4-6]
Second: CS(=O)(=O)c1ccc(C(=O)N[C@H]2CC[C@@H](Nc3cc(C(F)(F)F)nc4ccc(Cl)cc34)CC2)c(Cl)c1 [4-123]
The IC50 of the first is higher: 501 to 1000 nM for the first, 100 to 500 nM for the second. The second is the more potent here.

`CNc1cccc(C(=O)N[C@H]2CC[C@@H](Nc3cc(C(F)(F)F)nc4ccc(Cl)cc34)CC2)c1` [4-8] and `CCNc1cccc(C(=O)N[C@H]2CC[C@@H](Nc3cc(C(F)(F)F)nc4ccc(Cl)cc34)CC2)c1` [4-282] fall in the same range of IC50: 100 to 500 nM for the first, 100 to 500 nM for the second.

First: O=C(N[C@H]1CC[C@@H](Nc2cc(C(F)(F)F)nc3ccc(Cl)cc23)CC1)c1ccc2[nH]c(-c3ccncc3)nc2c1 [4-23]
Second: O=C(N[C@H]1CC[C@@H](Nc2cc(C(F)(F)F)nc3ccc(Cl)cc23)CC1)c1ccc2oc(=O)ccc2c1 [4-145]
The IC50 of the first is lower: less than 100 nM for the first, 100 to 500 nM for the second. The first is the more potent here.

First: O=C(N[C@H]1CC[C@@H](Nc2cc(C(F)(F)F)nc3ccc(Cl)cc23)CC1)c1ccc2nc(Cl)sc2c1 [4-57]
Second: O=C1CCc2ccc(C(=O)N[C@H]3CC[C@@H](Nc4cc(C(F)(F)F)nc5ccc(Cl)cc45)CC3)cc2N1 [4-283]
The IC50 of the first is higher: 501 to 1000 nM for the first, 100 to 500 nM for the second. The second is the more potent here.

`O=C(N[C@H]1CC[C@@H](Nc2cc(C(F)(F)F)nc3ccc(Cl)cc23)CC1)c1n[nH]c2c1COCC2` [4-60] and `Cn1cc(I)c(C(=O)N[C@H]2CC[C@@H](Nc3cc(C(F)(F)F)nc4ccc(Cl)cc34)CC2)n1` [4-90] fall in the same range of IC50: 501 to 1000 nM for the first, 501 to 1000 nM for the second.

`CC(=O)Nc1ccc(C(=O)N[C@H]2CC[C@@H](Nc3cc(C(F)(F)F)nc4ccc(Cl)cc34)CC2)cc1` [4-103] and `CNC(=O)Nc1cccc(C(=O)N[C@H]2CC[C@@H](Nc3cc(C(F)(F)F)nc4ccc(Cl)cc34)CC2)c1` [Example 5A] cannot be ordered by IC50: less than 100 nM for the first, less than 100 nM for the second.

Compared with `O=C(N[C@H]1CC[C@@H](Nc2cc(C(F)(F)F)nc3ccc(Cl)cc23)CC1)c1csnn1` [4-107], `CCCc1nnsc1C(=O)N[C@H]1CC[C@@H](Nc2cc(C(F)(F)F)nc3ccc(Cl)cc23)CC1` [4-209] is higher in IC50: 501 to 1000 nM for the first, 1000 to 2500 nM for the second.

Compared with `O=C(N[C@H]1CC[C@@H](Nc2cc(C(F)(F)F)nc3ccc(Cl)cc23)CC1)C1CCN(C(=O)c2ccccc2Cl)CC1` [4-122], `O=C(N[C@H]1CC[C@@H](Nc2cc(C(F)(F)F)nc3ccc(Cl)cc23)CC1)c1cccn1-c1ccccc1` [4-162] is lower in IC50: greater than 2500 nM for the first, 1000 to 2500 nM for the second. The second is the more potent here.

First: CC(C)Cc1cc(C(=O)N[C@H]2CC[C@@H](Nc3cc(C(F)(F)F)nc4ccc(Cl)cc34)CC2)n(C)n1 [4-129]
Second: CC(C)C(=O)Nc1cccc(C(=O)N[C@H]2CC[C@@H](Nc3cc(C(F)(F)F)nc4ccc(Cl)cc34)CC2)c1 [4-279]
The IC50 of the first is higher: 1000 to 2500 nM for the first, 100 to 500 nM for the second. The second is the more potent here.

Compared with `O=C(CCOc1cccc(F)c1)N[C@H]1CC[C@@H](Nc2cc(C(F)(F)F)nc3ccc(Cl)cc23)CC1` [4-134], `CN(C)C(=O)Nc1cccc(C(=O)N[C@H]2CC[C@@H](Nc3cc(C(F)(F)F)nc4ccc(Cl)cc34)CC2)c1` [4-281] is lower in IC50: greater than 2500 nM for the first, 100 to 500 nM for the second.

First: Cc1cc(C(F)(F)F)nn1CC(=O)N[C@H]1CC[C@@H](Nc2cc(C(F)(F)F)nc3ccc(Cl)cc23)CC1 [4-141]
Second: CCCS(=O)(=O)Nc1ccc(F)c(C(=O)N[C@H]2CC[C@@H](Nc3cc(C(F)(F)F)nc4ccc(Cl)cc34)CC2)c1F [4-173]
The IC50 of the first is higher: 1000 to 2500 nM for the first, 100 to 500 nM for the second.

First: O=C1Nc2c(C(=O)N[C@H]3CC[C@@H](Nc4cc(C(F)(F)F)nc5ccc(Cl)cc45)CC3)cccc2C1=O [4-164]
Second: N#Cc1ccc(C(=O)N[C@H]2CC[C@@H](Nc3cc(C(F)(F)F)nc4ccccc34)CC2)s1 [4-242]
The IC50 of the first is lower: 100 to 500 nM for the first, 1000 to 2500 nM for the second.

First: CC1C(C(=O)N[C@H]2CC[C@@H](Nc3cc(C(F)(F)F)nc4ccc(Cl)cc34)CC2)CC2CC1C2(C)C (stereo partly shown) [4-200]
Second: N#Cc1csc(C(=O)N[C@H]2CC[C@@H](Nc3cc(C(F)(F)F)nc4ccccc34)CC2)c1 [4-243]
The IC50 of the first is higher: 1000 to 2500 nM for the first, 501 to 1000 nM for the second. The second is the more potent here.

For `O=C(N[C@H]1CC[C@@H](Nc2cc(C(F)(F)F)nc3ccccc23)CC1)c1ccnc2ccccc12` [4-230], the IC50 was 1000 to 2500 nM.

What follows are compounds tested on Human LAD2 cells (assay: Mast Cell Beta-Hexosaminidase Release Assay (versus 500 nM Cortistatin-14)). Conditions: 500 nM Cortistatin-14 agonist, read-out: MRGPR2 Antagonist Activity.
Assay type: cell-based
Experimental: Human LAD2 cells (NIH) were maintained in an incubator at 37° C. with 5% CO2 and cultured in StemPro-34 serum-free media (Gibco 10639011) supplemented with 2 mM L-glutamine, 100 U/ml penicillin, […] streptomycin and 100 ng/ml SCF (Invitrogen PEP0860), at a concentration of 2-5×10^5 cells/mL, with hemidepletion every 1-2 weeks.
Cells were transferred to SCF-Free medium at 2.5×10^5 cells/mL and kept in an incubator overnight. On the day of the assay, cells were washed twice in Assay Buffer (final concentrations 10 mM HEPES, 137 mM NaCl, 5.6 mM D-glucose, 2.7 mM KCl, 1 mM MgCl, 1.8 mM CaCl2, 0.4 mM Na2HPO4.7H2O, 0.04% BSA, pH=7.4) and plated in a 96-well v-bottom plate at 20,000 cells per well in 80 μL Assay Buffer. Antagonist compounds solubilized at 10 mM in DMSO were diluted in Assay Buffer to 10× final desired concentrations as a 10-point curve (10 μM final top concentration with 1:3 serial dilutions) and 10 μL added per well. Plates were then incubated for 1 hour at 37° C. Agonists were diluted in Assay Buffer to 10× desired concentrations and 10 μL of the appropriate agonist added to each well. The final concentration of Cortistatin-14 (Tocris 3374) used in antagonist assays was 500 nM. Final concentrations of DMSO were kept consistent across the plate. Plates were then incubated in a warm air oven for 30 minutes at 37° C., followed by centrifugation at 4° C. for 5 minutes at 450×g. 50 μL supernatant from each well was then transferred to a 96-well flat bottom plate containing 100 μL substrate solution per well (3.5 mg/mL p-Nitrophenyl-N-acetyl-β-D-glucosaminide (Sigma 487052) in Citrate Buffer containing a final concentration of 40 mM Citric Acid, 20 mM Na2HPO4.7H2O, pH=4.5). To the cell pellets left in the remaining assay buffer, 150 μL 0.1% Triton-X-100 was then added to each well, resuspended by pipetting up and down, and 50 μL cell lysates transferred to a second 96-well flat bottom plate containing 100 μL substrate solution per well. Plates containing transferred supernatant and cell lysates were then incubated in a warm air oven for 90 minutes at 37° C. After incubation, 50 μL of 400 mM Glycine buffer (pH 10.7) was added into each well and the plate was read on a Molecular Devices SpectraMax iD5 plate reader (absorbance at 405 nm with reference filter at 620 nm). After background subtraction, the percentage degranulation (percent beta-hexosaminidase release) was calculated as 100×(supernatant values)/(supernatant+lysate values), followed by analysis using GraphPad Prism software to calculate an IC50 value for each compound.
as §1

`O=C(N[C@H]1CC[C@@H](Nc2cc(C(F)(F)F)nc3ccc(F)cc23)CC1)c1ccc(F)cc1` [1-4, 4-fluoro-N-[(1s,4s)-4-{[6-fluoro-2-(trifluoromethyl)quinolin-4-yl]amino}cyclohexyl]benzamide] and `O=C(N[C@H]1CC[C@@H](Nc2cc(C(F)(F)F)nc3ccc(Cl)cc23)CC1)c1ccc(F)cc1` [1-5, 4-fluoro-N-[(1s,4s)-4-{[6-chloro-2-(trifluoromethyl)quinolin-4-yl]amino}cyclohexyl]benzamide] fall in the same range of IC50: 100 to 500 nM for the first, 100 to 500 nM for the second.
